In EP2216022A1, “USE OF C[…] THE TREATMENT OF BASAL CELL CARCINOMA AND OTHER TUMORS” (Tas, Sinan, priority 2001, dated 2002):

Columns and labels:
Format in all cases: in vivo, patient
[1] = system: basal cell carcinomas (BCC's); assay: Topical cyclopamine cream on basal cell carcinomas: clinical regression; conditions: Two BCC's (nasolabial fold, forehead); topical cream 18 mM cyclopamine, 10 ± 2 µl four times per day; visual disappearance of several tumor areas within less than a week, loss of translucency
Text: (§1) These regions are seen to contain residual BCC`s displaying large cysts in the tumor center and smaller cystic structures of various sizes located among the residual BCC cells towards the periphery. • Fig 2D and Fig 2E show 1000X magnified appearances from the interior and palisading peripheral regions of these residual BCC's and show the presence of massive apoptotic activity among the residual BCC cells regardless of the tumor region.
1C : BCC, located on forehead, prior to tretment.

[2] = system: BCC cells; assay: Apoptosis by morphological criteria on hematoxylene-eosine stained sections of excised treated BCC's; conditions: topical cream 18 mM cyclopamine, 10 ± 2 µl four times per day, excised on fifth and sixth days, means ± standard deviations, at least 16 high-power (1000 X) fields, p < 0.001 vs placebo
Text: as §1
Cells undergoing apoptosis are known to be removed by macrophages and by nearby cells in normal tissues and the quantitation of apoptotic activity by morphological criteria on hematoxylene-eosine stained sections is known to provide an underestimate.
Fig 2A, 2B, 2C, 2D, 2E, 2F : Microscopic appearences of the cyclopamine- and placebo-treated BCC's, showing the cyclopamine-induced massive apoptotic death and removal of the tumor cells and the disappearence of tumor nodules to leave behind cystic spaces with no tumor cells. Skin areas corresponding to the pre-treatment positions of the BCC's were excised surgically on the fifth and sixth days of cyclopamine exposure with a margin of normal tissue and subjected to conventional fixation, sectioning and hematoxylene-eosine staining for microscopic analyses. 2A : Large cyst in the dermis corresponding to the position of a disappeared tumor nodule showing no residual tumor cells. […]

[3] = system: BCC cells; assay: Immunohistochemical Ber-Ep4 labelling (differentiation marker) of treated BCC's; conditions: topical cream 18 mM cyclopamine, four times per day, excised on fifth and sixth days, means ± standard deviations, p < 0.001 vs placebo
Text: as §1
The loss of translucency in the cyclopamine-treated BCC's raises the intriguing possibility of differentiation of BCC's under the influence of cyclopamine. This possibility, which can be tested by immunohistochemical analyses of the BCC's, is found to be the case in this invention. In normal epidermis, differentiation of basal tayer cells to the upper layer cells is accompanied by a loss of labelling with the monoclonal antibody Ber-Ep4. Ber-Ep4 labels also the BCC cells and is a known marker for these neoplasms.
(§2) Ber-Ep4 is a known differentiation marker that stains the BCC cells as well as the undifferentiated cells of the normal epidermis basal layer and of hair follicles but not the differentiated upper layer cells of normal epidermis. […] 3D and 3E : Decreased expression of p53 as detected by the monoclonal antibody DO-7 in cyclopamine-treated BCC's (3D) in comparison to the placebo-treated BCC's (3E). Expression of p53 is known to decrease upon differentiation of the epidermal basal cells and upon differentiation of cultured keratinocytes. It is also well known that the amount of p53, detectable by DO-7, increases in cells when they are exposed to DNA-damaging agents. […] Original magnifications are 400X for 3A, 3B, 3D, 3E, 1000X for 3C and 100X for 3F, 3G. All immunohistochemical labellings are with peroxidase-conjugated streptavidin binding to biotinylated secondary antibody; labelling is Indicated by the brown-colored staging. Sections shown in 3F and 3G are stained with Periodic Acid-Schiff and Alcian blue.

[4] = system: p53; assay: Immunohistochemical DO-7 labelling (p53 expression) of treated BCC's; conditions: topical cream 18 mM cyclopamine; for % Of Cells Labelled With DO-7: four times per day, excised on fifth and sixth days, means ± standard deviations, p < 0.001 vs placebo
Text: as §1
The p53 is a master regulator of the cellular response to DNA-damage. Amount of this protein is known to increase in the cell nucleus following exposure of cells to genotoxic agents. When the DNA-damage is increased beyond a threshold, p53 serves for the apoptotic death of cells. Radiation therapy of cancer and the genotoxic cancer chemotherapeutics that are currently common, act largely by this mechanism, i.e. by causation of apoptosis secondary to the damaging of DNA. The monoclonal antibody DO-7 can bind both normal and missense mutant (i.e., nonfunctional) forms of p53 and is known to be capable of detecting the increase of p53 in the cells following exposure to DNA-damaging agents.
Since expression of p53 is known to decrease in epidermal cells upon differentiation, the decreased DO-7 labelling of the cyclopamine-treated BCC's is likely to be secondary to the cyclopamine-induced differentiation of the BCC cells.
(§3) Ber-Ep4 is a known differentiation marker that stains the BCC cells as well as the undifferentiated cells of the normal epidermis basal layer and of hair follicles but not the differentiated upper layer cells of normal epidermis. […] 3D and 3E : Decreased expression of p53 as detected by the monoclonal antibody DO-7 in cyclopamine-treated BCC's (3D) in comparison to the placebo-treated BCC's (3E). Expression of p53 is known to decrease upon differentiation of the epidermal basal cells and upon differentiation of cultured keratinocytes. It is also well known that the amount of p53, detectable by DO-7, increases in cells when they are exposed to DNA-damaging agents. […]

[5] = system: BCC cells; assay: Ulex Europaeus lectin type 1 labelling (differentiation marker) of treated BCC's; conditions: Residual cells of cyclopamine-treated BCC's; lectin normally does not label BCC's; topical cream 18 mM cyclopamine
Text: as §1
as §2, with “Sections shown in 3F and 3G are stained with Periodic Acid-Schiff and Alcian blue.” left out

[6] = system: BCC's; assay: Retraction of treated BCC's from stroma (arrest of proliferation), Periodic Acid-Schiff and Alcian blue sections; conditions: Cyclopamine-treated but not placebo-treated BCC's; associated with arrest of proliferation; topical cream 18 mM cyclopamine
Text: as §1
Arrest of the proliferation of BCC's is known to be associated with their retraction from stroma. Although retraction from stroma can also be caused artefactually by improper fixation and processing of the tissues, adherence to published technical details ensures avoidance of such artefacts.
as §3

[7] = system: normal epidermis and hair follicles; conditions: Normal skin exposed to the same schedule and doses of cyclopamine as the BCC's; undifferentiated basal layer cells preserved
Text: as §1
4B and 4C Higher power views from different areas of cyclopamine-treated epidermis showing Ber-Ep4 labelling of the basal cells. […] Original magnification is 400X for 4A and 1000X for 4B, 4C, 4D, immunohistochemical detection procedure is the same as in Fig 3A, 3B; labelling is indicated by brown coloring.

[8] = Non-palisading (interior) cells of the BCC's
[9] = Peripheral palisading cells of the BCC's

## CC1=C2C[C@H]3[C@@H](CC=C4C[C@@H](O)CC[C@@]43C)[C@@H]2CC[C@]12O[C@@H]1C[C@H](C)CN[C@H]1[C@H]2C [Cyclopamine]
[1]
  clinical regressions of the BCC's: rapid clinical regressions
[2]; [8]
  % Of Cells Showing ≥ 2 Morphological Signs Of Apoptosis On H&E Stained Tissue Sections: 18 ± 11%
[2]; [9]
  % Of Cells Showing ≥ 2 Morphological Signs Of Apoptosis On H&E Stained Tissue Sections: 20 ± 8%
[3]; [8]
  % Of Cells Labelled With Ber-Ep4: 0 ± 0%
[3]; Non-palisading (interior) cells of the BCC's, listed as cyclopamine
  % Of Cells Labelled With Ber-Ep4: none
[3]; [9]
  % Of Cells Labelled With Ber-Ep4: 0 ± 0%
[3]; Peripheral palisading cells of the BCC's, listed as cyclopamine
  % Of Cells Labelled With Ber-Ep4: none
[4]; Cyclopamine-treated BCC's in comparison to placebo-treated BCC's
  DO-7 labelling intensity and the frequency of labelled cells: markedly decreased
[4]; [8]
  % Of Cells Labelled With DO-7: 5 ± 3%
[4]; [9]
  % Of Cells Labelled With DO-7: 16 ± 11%
[5]
  labelling of the residual cells with Ulex Europaeus lectin type 1: heterogenous labelling
[6]
  retraction of BCC's from stroma: consistently retracted from stroma
[7]
  pattern of labelling with Ber-Ep4 of cyclopamine-treated normal epidermis and hair follicle: normal pattern of labelling
